According to ChEMBL document CHEMBL3044566, “Synthesis and anticancer activity of some new s-triazine derivatives” (Med Chem Res, 2013):

Experiments:
Type in all cases: functional, cell-based
A549 = experiment: Cytotoxicity against human A549 cells after 24 hrs by MTT assay; details: A549, 24 h
MCF7 = experiment: Cytotoxicity against human MCF7 cells after 24 hrs by MTT assay; details: MCF7, 24 h
PA-1 = experiment: Cytotoxicity against human PA1 cells after 24 hrs by MTT assay; details: PA-1, 24 h
HT-29 = experiment: Cytotoxicity against human HT-29 cells after 24 hrs by MTT assay; details: HT-29, 24 h

c1ccc(Nc2nc(Nc3ccc(-c4nc5ccccc5o4)cc3)nc(N3CCOCC3)n2)cc1 gave an IC50 (A549) of 22 µM, an IC50 (MCF7) of 10.6 µM and an IC50 (PA-1) of 0.61 µM. It also gave an IC50 (HT-29) of 0.27 µM.
Work on Fc1ccc(Nc2nc(Cl)nc(Nc3ccc(-c4nc5ccccc5o4)cc3)n2)cc1 yielded an IC50 (A549) of 254 µM, an IC50 (MCF7) of 68.4 µM and an IC50 (PA-1) of 186 µM. It also gave an IC50 (HT-29) of 47 µM.
COc1cccc2c1C(=O)c1c(O)c3c(c(O)c1C2=O)C[C@@](O)(C(=O)CO)C[C@@H]3O[C@H]1C[C@H](N)[C@H](O)[C@H](C)O1 [DOXORUBICIN] was tested, and the IC50 (MCF7) was 10.9 µM, the IC50 (PA-1) was 0.64 µM and the IC50 (HT-29) was 1.76 µM.
Molecule Fc1ccc(Nc2nc(Nc3ccc(-c4nc5ccccc5o4)cc3)nc(N3CCOCC3)n2)cc1 has an IC50 (A549) of 26.7 µM, an IC50 (MCF7) of 12.3 µM and an IC50 (PA-1) of 0.45 µM. It also gave an IC50 (HT-29) of 0.31 µM.
In the case of c1ccc(CNc2nc(Nc3ccc(-c4nc5ccccc5o4)cc3)nc(N3CCOCC3)n2)cc1, the IC50 (A549) is reported as 23.4 µM, the IC50 (MCF7) is reported as 2.46 µM and the IC50 (PA-1) is reported as 10.5 µM. The IC50 (HT-29) was 0.92 µM.
For Clc1nc(NCc2ccccc2)nc(Nc2ccc(-c3nc4ccccc4o3)cc2)n1, the IC50 (A549) was 296 µM, the IC50 (MCF7) was 66.1 µM and the IC50 (PA-1) was 195 µM. It also gave an IC50 (HT-29) of 44 µM.
Work on COc1ccc(Nc2nc(Nc3ccc(-c4nc5ccccc5o4)cc3)nc(N3CCOCC3)n2)cc1 yielded an IC50 (A549) of 12.9 µM, an IC50 (MCF7) of 6.48 µM and an IC50 (PA-1) of 0.25 µM. For the same molecule, the IC50 (HT-29) was 0.14 µM.
Molecule COc1ccc(Nc2nc(Cl)nc(Nc3ccc(-c4nc5ccccc5o4)cc3)n2)cc1 has an IC50 (A549) of 278 µM, an IC50 (MCF7) of 270 µM and an IC50 (PA-1) of 172 µM. For the same molecule, the IC50 (HT-29) was 139 µM.
Molecule Clc1nc(Nc2ccccc2)nc(Nc2ccc(-c3nc4ccccc4o3)cc2)n1 has an IC50 (A549) of 225 µM, an IC50 (MCF7) of 55.2 µM and an IC50 (PA-1) of 169 µM. The IC50 (HT-29) was 32.6 µM.
